Source: patent US20090175905A1, “TRANSFECTION REAGENT AND METHOD FOR ENHANCING TRANSFECTION EFFICIENCY” (National Taiwan University of Science and Technology, priority 2008, published 2009)
Where two headings read alike, the source gives them in different places.

Assays:
[1] = test system: Chinese hamster ovary (CHO) cells; experiment: In vitro transfection of CHO cells with pEGFP-C1 plasmid and DOTAP liposomes plus disaccharides, GFP by flow cytometer; assay type: cell-based; settings: DOTAP liposomes; for effect on transfection efficiency: appropriate amount of disaccharide
Excerpt: FIG. 2 present the effects of disaccharides on the transgene expression of cultured Chinese hamster ovary (CHO) cells subjected to an in vitro transfection of DNA with a transfection reagent containing DOTAP and various disaccharides. The x-axis in FIG. 2 refers to the disaccharide concentration in the transfection reagent, and the y-axis in FIG. 2 represents the GFP (green fluorescent protein)-positive percentage of the transfected CHO cells measured by a flow cytometer. The GFP-positive percentage of the CHO cells is used as an indicator of transfection efficiency. In the experiments shown in FIG. 2, various concentrations of cellobiose, lactose, sucrose, trehalose and maltose are respectively incorporated into a transfection reagent containing pEGFP-C1 plasmid and DOTAP liposomes, and in vitro transfections are performed with the transfection reagents containing different disaccharides. The GFP-positive percentage of CHO cells is then detected for each transfection reagent sample. […] In other words, the incorporation of a disaccharide into the transfection reagent affects the transfection efficiency. Moreover, the changes in transfection efficiency are related to the type and the concentration of the disaccharide in the transfection reagent. […] More particularly, the transfection efficiency increases from 28% to more than 40% at 180 mM of lactose, sucrose or trehalose in a transfection reagent. The transfection efficiency is doubled when 120 mM of cellobiose is incorporated into a transfection reagent.

CHO cells [2] = test system: CHO cells
Excerpt: (§3) FIG. 5 presents the effects of disaccharides on the cellular cytotoxicity of the in vitro cultured CHO cells transfected with transfection reagents containing lipid-based carriers.

[3] = test system: Chinese hamster ovary (CHO) cells; experiment: In vitro transfection of CHO cells with different lipid-based vectors plus disaccharides, GFP-positive percentage; assay type: cell-based; settings: 120 mM disaccharide; DOTAP, DOTAP/Chol, DOTAP/DOPE, DC-Chol/DOPE or LPD vector
Excerpt: FIGS. 3A and 3B present the effects of disaccharides on the transgene expression of cultured Chinese hamster ovary (CHO) cells subjected to an in vitro transfection of DNA with a transfection reagent containing different lipid-based vectors plus different disaccharides. The x-axis in FIGS. 3A and 3B represents the lipid composition, and the y-axis represents the GFP-positive percentage of the transfected CHO cells, which is used as an indicator for transfection efficiency. In the experiments shown in FIGS. 3A and 3B, DOTAP, DOTAP/Chol, DOTAP/DOPE, DC-Chol/DOPE or LPD applied as a vector is incorporated into a pEGFP-C1 plasmid-containing transfection reagent. Thereafter, 120 mM of various disaccharides is incorporated into the transfection reagent, and in vitro cell transfection is performed followed by detecting the cell percentage of GFP expression.

lung tissues = experiment: In vivo transfection by tail vein injection of gWiz-luciferase plasmid with lipid-based vectors plus disaccharides, luciferase activity in lung; parameters: species or system mouse; settings: for effect on transfection efficiency (luminescent intensity, lung): DOTAP, DOTAP/Chol or LPD vector, i.v.
Procedure: FIG. 4A presents the effects of disaccharides on the transgene expression after intravenous injection of DOTAP-based vectors with various disaccharides by way of mouse tail vein. Various concentrations of […] and […] are respectively incorporated into the transfection reagent containing the gWiz-luciferase plasmid and DOTAP liposomes. The transfection reagent is administered via intravenous injection through the tail vein of a 4-6 weeks old ICR (CD-1) […]. The […] is sacrificed 24 hour after the intravenous injection, and the activity of luciferase in the lung tissues of the […] is observed. The x-axis in FIG. 4A represents the disaccharide concentration in the tranfection reagent, and the y-axis in FIG. 4 represents the luminescent intensity, measured by a luminometer and expressed as relative light unit (RLU) per mg of lung tissue protein. The luminescent intensity is used as an indicator of transfection efficiency. […] Accordingly, cellobiose and trehalose can improve the efficiency of cell transfection in vivo, and the transfection efficiency increases as the concentration of the disaccharide increases. FIG. 4B presents the effects of disaccharides on the transgene expression after intravenous injection of different lipid-based vectors with various disaccharides by way of mouse tail vein. DOTAP, DOTAP/chol and LPD are respectively added as a vector into the tranfection reagent containing gWiz-luciferase plasmid. A concentration of 330 mM cellobiose or trehalsoe is incorporated into the transfection reagent. The transfection reagent is then intravenously injected into the animal for cell transfection. The x-axis in FIG. 4B represents the type of the lipid-based vector, and the y-axis in FIG. 4B represents the luminescent intensity, measured by a luminometer and expressed as relative light unit (RLU) per mg of lung tissue protein.

CHO cells [4] = experiment: In vitro transfection of CHO cells with DNA-PEI plus disaccharides, GFP by flow cytometer; assay type: cell-based, Chinese hamster; settings: PEI to DNA charge ratio 9:1
Excerpt: In the following experiments, a polyethyleneimine (PEI)-based vector is used to perform cell transfection. Further, various disaccharides are incorporated into the transfection reagent containing DNA and the vector, and the effects of disaccharides on cell transfection are observed.
(§1) FIG. 6 presents the effects of disaccharides on the transfection efficiency of in vitro cultured CHO cells that are transfected with transfection reagents containing PEI and different disaccharides. The x-axis in FIG. 6 represents the concentrations of different disaccharide in the transfection reagent, and the y-axis represents the GFP expression percentage of the transfected CHO cells detected by a flow cytometer. The GFP expression percentage of the transfected CHO cells is used as an indicator of transfection efficiency. […] The effect of disaccharides in the transfection reagent on transfection efficiency is then analyzed. […] In other words, the cell transfection efficiency is enhanced.

COS-7 cells = experiment: DNA-PEI transfection with trehalose, GFP expression percentage, COS-7; assay type: cell-based; settings: 180 mM trehalose
Excerpt: as §1
(§2) FIGS. 7A and & 7B show the optimal trehalose concentrations for enhancing the transfection expression mediated by DNA-PEI complexes in different cell lines. The x-axis in FIGS. 7A and 7B […] represents the concentrations of trehalose in the transfection reagent, and the y-axis represents the GFP expression percentage of the cells as an indicator of transfection efficiency The transfection procedures in these experiments of different cell lines are identical to those described previously for CHO cells in experiment 5. […] Moreover, the extents of enhancement on the transfection efficiency depend on the cell lines. […]

293 cells = experiment: DNA-PEI transfection with trehalose, GFP expression percentage, 293; assay type: cell-based; settings: 180 mM trehalose
Excerpt: as §1, §2

MDA-MB-231 = experiment: DNA-PEI transfection with trehalose, GFP expression percentage, MDA-MB-231; assay type: cell-based; settings: 20 mM trehalose, MDA-MD-231
Excerpt: as §1, §2

B16F10 = experiment: DNA-PEI transfection with trehalose, GFP expression percentage, B16F10; assay type: cell-based; settings: 20 mM trehalose
Excerpt: as §1, §2

KB = experiment: DNA-PEI transfection with trehalose, GFP expression percentage, KB; assay type: cell-based; settings: 20 mM trehalose
Excerpt: as §1, §2

CHO cells [5] = experiment: MTT cellular viability of CHO cells transfected with DNA-PEI complexes plus trehalose; assay type: cell-based, Chinese hamster; settings: PEI to DNA charge ratio 9:1; nontransfected CHO cells = 100%
Excerpt: The x-axis in FIG. 5 represents different trehalose concentrations and the y-axis represents cellular viability analyzed by the MTT assay. In the experiments, the PEI to DNA charge ratio in the transfection reagent is maintained at 9:1, and the viability of nontransfected CHO cells is set at 100%. […] In other words, the incorporation of trehalose mitigates the toxic effect of the transfection reagent.

mouse muscles = experiment: In vivo transfection of muscles by direct intramuscular injection of naked plasmid plus disaccharides, luciferase luminescence; settings: for luminescent intensity (RLU per mg of muscular tissue protein) versus control group without disaccharides: 10 mM disaccharide
Procedure: The following experiments are conducted using naked nucleic acid delivery system for directly transfecting plasmid DNA into the cells of animals, and additional viral or non-viral vector is precluded. The transfection reagent is incorporated with various concentrations of disaccharides as an enhancer, and the effects of disaccharides in the naked nucleic acid delivery system on the cell transfection are observed.
FIG. 9 presents the effects of various disaccharides on the transgene expression of mouse muscles after direct intramuscular injection of naked plasmid. The transfection procedures in these experiments are identical to those described previously in experiment 3. The major differences between the two experiments are the vector applied and the method of transfection as well as the administration route into the body of the […]. The x-axis in FIG. 9 represents the types of disaccharides, and the y-axis represents the luminescent intensity, measured by a luminometer and expressed as relative light unit (RLU) per mg of muscular tissue protein, wherein the luminescent intensity is used as an indicator to evaluate the transfection efficiency.
FIG. 10 presents the effects of trehalose concentrations on the transgene expression of mouse muscles after direct intramuscular injection of naked plasmid. The x-axis in FIG. 10 represents the concentrations of trehalose in the transfection reagent, and the y-axis represents the luminescent intensity, measured by a luminometer and expressed as relative light unit (RLU) per mg of muscular tissue protein. The luminescent intensity is used as an indicator to evaluate transfection efficiency.
[…] presents the effects of gene dosage on the transgene expression of mouse muscles in the presence of trehalose after direct intramuscular injection of naked plasmid. The x-axis in FIG. 11 represents the amount of DNA plasmid, and the y-axis represents the luminescent intensity, measured by a luminometer and expressed as relative light unit (RLU) per mg of muscular tissue protein, wherein the luminescent intensity is used as an indicator to evaluate the transfection efficiency.
FIG. 12 presents the effects of the trehalose on the durations of transgene expression of mouse muscles after direct intramuscular injection of naked plasmid. The x-axis in FIG. 12 represents the days after the intramuscular injection, and the y-axis represents the luminescent intensity, measured by a luminometer and expressed as relative light unit (RLU) per mg of muscular tissue protein, wherein the luminescent intensity is used as an indicator to evaluate the transfection efficiency of gWiz-luciferase plasmid. […] In other words, trehalose might extend the durations of nucleic acid remaining inside the cells, and therefore prolonged the durations of transgene expression.

CHO cells [6] = experiment: MTT cellular viability of CHO cells transfected with lipid-based carriers plus disaccharides; settings: DOTAP, DOTAP/Chol, DOTAP/DOPE or LPD vector; nontransfected CHO cells = 100%
Excerpt: as §3

[7] = DOTAP liposomes, i.v. tail vein, 24 hour, 180 mM disaccharide
[8] = DOTAP liposomes, i.v. tail vein, 24 hour, 330 mM disaccharide

| Compound | effect on transfection efficiency [1] | cellular viability analyzed by the MTT assay (CHO cells [2]) | effect on transfection efficiency (GFP-positive percentage) [3] | effect on transfection efficiency (luminescent intensity, lung) (lung tissues; 330 mM disaccharide) | luminescent intensity in the lung tissue (RLU per mg of lung tissue protein) (lung tissues; [7]) | luminescent intensity in the lung tissue (RLU per mg of lung tissue protein) (lung tissues; [8]) | luminescent intensity (RLU per mg of muscular tissue protein) versus control group without disaccharides (mouse muscles; naked plasmid) | other results |
| --- | --- | --- | --- | --- | --- | --- | --- | --- |
| OC[C@H]1O[C@H](O[C@H]2[C@H](O)[C@@H](O)[C@H](O)O[C@@H]2CO)[C@H](O)[C@@H](O)[C@@H]1O [maltose] | increases significantly | improve the cellular viabilities |  |  |  |  |  |  |
| OC[C@H]1O[C@@](CO)(O[C@H]2O[C@H](CO)[C@@H](O)[C@H](O)[C@H]2O)[C@@H](O)[C@@H]1O [sucrose] | increases significantly | improve the cellular viabilities | significantly enhances the transfection efficiency |  |  |  |  |  |
| OC[C@H]1O[C@H](O[C@H]2O[C@H](CO)[C@@H](O)[C@H](O)[C@H]2O)[C@H](O)[C@@H](O)[C@@H]1O [trehalose] | increases significantly |  | significantly enhances the transfection efficiency | significant increase in transfection efficiency | increase the luminescent intensity significantly | increases noticeably | higher luminescent intensity | effect on GFP expression percentage (transfection efficiency) (CHO cells [4]): significantly increases the GFP expression percentage; GFP expression percentage (CHO cells [4]; 180 mM trehalose): about 20%; GFP expression percentage relative to absence of disaccharides (CHO cells [4]; 180 mM trehalose): about one fold higher; enhancement of percentage of GFP expressed cells (COS-7 cells): 37%; enhancement of percentage of GFP expressed cells (293 cells): 32%; enhancement of percentage of GFP positive cells (MDA-MB-231): about 50%; enhancement of percentage of GFP positive cells (B16F10): ~42%; enhancement of percentage of GFP positive cells (KB): ~13%; cellular viability analyzed by the MTT assay (CHO cells [5]): increases the cellular viability; duration of transgene expression (muscle luminescence over days after injection) (mouse muscles; naked gWiz-luciferase plasmid): higher luminescence intensities for a longer period of time; transfection efficiency versus control group without trehalose at the same amount of plasmid DNA (mouse muscles; naked plasmid, 10 mM trehalose): significantly higher; effect of trehalose concentration on transfection efficiency (muscle luminescent intensity) (mouse muscles; naked plasmid, trehalose between about 10 mM to 12.5 mM): increases significantly; cellular viability analyzed by the MTT assay (CHO cells [6]): improve the cellular viabilities |
| OC[C@H]1O[C@@H](O[C@H]2[C@H](O)[C@@H](O)C(O)O[C@@H]2CO)[C@H](O)[C@@H](O)[C@H]1O (stereo partly drawn) [lactose] | increases significantly | improve the cellular viabilities | significantly enhances the transfection efficiency |  |  |  | higher luminescent intensity |  |
| O=C[C@H](O)[C@@H](O)[C@H](O[C@@H]1O[C@H](CO)[C@@H](O)[C@H](O)[C@H]1O)[C@H](O)CO [cellobiose] | increases significantly | improve the cellular viabilities | significantly enhances the transfection efficiency | significant increase in transfection efficiency | increase the luminescent intensity significantly | increases noticeably |  | change of transfection efficiency ([1]; 120 mM cellobiose): doubled; increase of luciferase expression of lung (lung tissues; [8]): more than 10 fold |
